For this test, the system named is BV-2 (mouse microglia) cells. The experiment in a line: progranulin secretion from BV-2 cells, mouse progranulin ELISA of conditioned media. Conditions: Mus musculus, BV-2 cells, 16 hours incubation, 8-point curves starting at 10 μM. In kind it is cell-based. Here is the method: BV-2 cells are split the day before plating into a 96 well plate format at approximately 80%. Cells should be plated the day before and allowed for 1 hour attachment period and for 16 hour incubation. […] Standard ELISA kits to measure PGRN are available from vendors such as Adipogen, R&D, and Biovendor.
Compound potency was determined by measuring progranulin secretion from BV-2 (mouse microglia) cells. BV-2 cells were grown in RPMI with 2 mM L-glutamine supplemented with 10% fetal bovine serum. On the day of the assay, cells were plated in 96-well plates at a density of 30,000 cells/well in RPMI (Roswell Park Memorial Institute media)/L-glutamine supplemented with 2% Fetal clone serum II (plating media) and left to adhere for 1 hour. Following attachment to the plate, media was replaced with treatment (8-point curves in half-log dilutions starting at 10 μM) in plating media and incubated for 16 hours. Secreted progranulin was measured from a 1:10 dilution of the conditioned media using the R&D Systems mouse progranulin ELISA kit (cat #DY2557) and following the manufacturer's instructions.

Setting [1] is: assay run v2 (same protocol, different assay), read-out: PRGN v2 (EC50, progranulin secretion).
[2] abbreviates: assay run v1, read-out: PRGN v1 (EC50, progranulin secretion).
[3] abbreviates: BV-2, 16 h, assay run v1, read-out: PRGN v1 (EC50, progranulin secretion).
The mark [4] stands for this setting: BV-2, 16 h, assay run v2 (same protocol, different assay), read-out: PRGN v2 (EC50, progranulin secretion).

Each structure is given as a SMILES string. Like-named read-outs stand apart in the source and are kept apart here. A value given as a limit tells only on which side of the number the result lay.

In the case of `O=C(O[C@@H]1CN2CCC1CC2)N1CCc2ccccc2[C@@H]1c1ccc(-n2cnnc2)cc1` [Compound 1042], the EC50 under setting [1] was more than 10 µM.

With `O=C(O[C@@H]1CN2CCC1CC2)N1CCc2ccccc2[C@H]1c1ccc(-n2cnnc2)cc1` [Compound 1043], the EC50 under setting [1] was more than 10 µM. The same measure, in the same setting: with `O=C(O[C@@H]1CN2CCC1CC2)N1Cc2ccccc2[C@@H]1c1ccccc1` [Compound 1044] the figure was more than 10 µM; with `O=C(O[C@@H]1CN2CCC1CC2)N1Cc2ccccc2[C@H]1c1ccccc1` [Compound 1045], more than 10 µM. In the case of `O=C(O[C@@H]1CN2CCC1CC2)N1CCc2ccccc2[C@@H]1c1ccc(Cl)cc1` [Compound 1046], the half-maximal effective concentration (EC50) under setting [2] was found to be 0.34 µM. Take `O=C(N[C@@H]1CN2CCC1CC2)N1CCc2ccccc2[C@@H]1c1ccccc1` [Compound 1047]: under setting [3], the EC50 was determined as 0.7 µM. For the compound `O=C(C[C@@H]1CN2CCC1CC2)N1CCc2ccccc2[C@@H]1c1ccccc1` [Compound 1048], the EC50 under setting [3] is 0.88 µM. Still for that read-out and setting: with `O=C(C[C@@H]1CN2CCC1CC2)N1CCc2ccccc2[C@@H]1c1ccc(Cl)cc1` [Compound 1049] the figure was 0.21 µM; with `CC1(C)[C@@H](NC(=O)N2CCc3ccccc3[C@@H]2c2ccc(Cl)cc2)C2CCN1CC2` [Compound 1050], 0.36 µM. On the same count and under the same terms, with `O=C(C[C@H]1CN2CCC1CC2)N1CCc2ccccc2[C@@H]1c1ccccc1` [Compound 1051] the figure was 1.37 µM. Consider `CS(=O)(=O)c1ccc([C@H]2c3ccccc3CCN2C(=O)C[C@@H]2CN3CCC2CC3)cc1` [Compound 1052], for which the EC50 under setting [3] was more than 10 µM. In the case of `O=C(C[C@@H]1CN2CCC1CC2)N1CCc2ccccc2[C@@H]1c1ccc(F)cc1F` [Compound 1053], the EC50 under setting [3] came out at 0.96 µM. Same read-out and setting: with `O=C(C[C@@H]1CN2CCC1CC2)N1CCc2ccccc2[C@@H]1c1ccc(-n2cncn2)cc1` [Compound 1054] the figure was more than 10 µM; with `O=C(C[C@@H]1CN2CCC1CC2)N1CCc2ccccc2[C@H]1c1ccc(-n2cncn2)cc1` [Compound 1055], more than 10 µM. The same measure, in the same setting: with `COc1ccc([C@H]2c3ccccc3CCN2C(=O)C[C@@H]2CN3CCC2CC3)cc1` [Compound 1056] the figure was 3.72 µM; with `COc1ccc([C@@H]2c3ccccc3CCN2C(=O)C[C@@H]2CN3CCC2CC3)cc1` [Compound 1057], 4.2 µM.

`O=C(C[C@@H]1CN2CCC1CC2)N1CCc2ccccc2[C@@H]1c1ccc(F)cc1` [Compound 1058]: the 50% effective concentration (EC50) under setting [2] came to 0.22 µM.

As for `O=C(C[C@@H]1CN2CCC1CC2)N1CCc2ccccc2[C@H]1c1ccc(F)cc1` [Compound 1059], the concentration for a half-maximal effect (EC50) under setting [2] is more than 10 µM. As for `COc1ccc([C@H]2c3ccccc3CCN2C(=O)C[C@@H]2CN3CCC2CC3)cc1F` [Compound 1060], the concentration giving a half-maximal response (EC50) by setting is: under setting [3], more than 10 µM; under setting [4], 2.07 µM.

For the compound `COc1ccc([C@@H]2c3ccccc3CCN2C(=O)C[C@@H]2CN3CCC2CC3)cc1F` [Compound 1061], the concentration for a half-maximal effect (EC50) is, setting by setting: under setting [3], more than 10 µM; under setting [4], more than 10 µM. Regarding `O=C(C[C@@H]1CN2CCC1CC2)N1CCc2ccccc2[C@@H]1c1cccc(F)c1` [Compound 1062], the EC50 by setting is: under setting [3], 1.1 µM; under setting [4], more than 6.1 µM. For the compound `O=C(C[C@@H]1CN2CCC1CC2)N1CCc2ccccc2[C@H]1c1cccc(F)c1` [Compound 1063], the EC50 reads like this: under setting [3], more than 10 µM; under setting [4], more than 10 µM. For the compound `O=C(C[C@@H]1CN2CCC1CC2)N1CCc2ccccc2[C@@H]1c1ccc(F)c(F)c1` [Compound 1064], the EC50 by setting is: under setting [3], 2.71 µM; under setting [4], 1.83 µM.

For the compound `O=C(C[C@@H]1CN2CCC1CC2)N1CCc2ccccc2[C@H]1c1ccc(F)c(F)c1` [Compound 1065], the half-maximal effective concentration (EC50) reads like this: under setting [3], more than 10 µM; under setting [4], more than 10 µM. As to `O=C1CCCN1c1ccc([C@H]2c3ccccc3CCN2C(=O)C[C@@H]2CN3CCC2CC3)cc1` [Compound 1066], the EC50 runs as follows: under setting [3], more than 10 µM; under setting [4], more than 10 µM. Regarding `O=C1CCCN1c1ccc([C@@H]2c3ccccc3CCN2C(=O)C[C@@H]2CN3CCC2CC3)cc1` [Compound 1067], the 50% effective concentration (EC50) is more than 10 µM under setting [3] and more than 10 µM under setting [4].

As for `O=C(C[C@@H]1CN2CCC1CC2)N1CCc2ccccc2[C@@H]1c1ccc(OC2CC2)cc1` [Compound 1068], the EC50 reads like this: under setting [3], 6.14 µM; under setting [4], more than 10 µM.

As to `O=C(C[C@@H]1CN2CCC1CC2)N1CCc2ccccc2[C@H]1c1ccc(OC2CC2)cc1` [Compound 1069], the EC50 is, setting by setting: under setting [3], more than 10 µM; under setting [4], more than 10 µM. For the compound `O=C(N[C@@H]1CN2CCC1CC2)N1CCc2ccccc2[C@@H]1c1ccc(F)cc1` [Compound 1070], the concentration for a half-maximal effect (EC50) by setting is: under setting [2], 0.18 µM; under setting [1], 0.26 µM. With `O=C(N[C@@H]1CN2CCC1CC2)N1CCc2ccccc2[C@H]1c1ccc(F)cc1` [Compound 1071], the concentration for a half-maximal effect (EC50) under setting [2] was found to be 0.41 µM.

`CS(=O)(=O)c1ccc([C@H]2c3ccccc3CCN2C(=O)N[C@@H]2CN3CCC2CC3)cc1` [Compound 1072, (S)-1-(4-(methylsulfonyl)phenyl)-N—((S)-quinuclidin-3-yl)-3,4-dihydroisoquinoline-2(1H)-carboxamide]: under setting [3], the EC50 is more than 4.41 µM. With `COc1ccc([C@H]2c3ccccc3CCN2C(=O)N[C@@H]2CN3CCC2CC3)cc1` [Compound 1073], the EC50 under setting [3] came to 4.96 µM.

As for `COc1ccc([C@@H]2c3ccccc3CCN2C(=O)N[C@@H]2CN3CCC2CC3)cc1` [Compound 1074], the EC50 under setting [3] is more than 10 µM. `O=C(N[C@@H]1CN2CCC1CC2)N1CCc2ccccc2[C@@H]1c1ccc(F)c(F)c1` [Compound 1075]: the EC50 under setting [3] was found to be 0.19 µM. In the case of `O=C(N[C@@H]1CN2CCC1CC2)N1CCc2ccccc2[C@H]1c1ccc(F)c(F)c1` [Compound 1076], the EC50 under setting [3] was more than 10 µM. For the compound `O=C(N[C@@H]1CN2CCC1CC2)N1CCc2ccccc2[C@@H]1c1ccncc1` [Compound 1077], the half-maximal effective concentration (EC50) under setting [3] is more than 10 µM. Same read-out and setting: with `O=C(N[C@@H]1CN2CCC1CC2)N1CCc2ccccc2[C@H]1c1ccncc1` [Compound 1078] the figure was more than 10 µM; with `O=C(N[C@@H]1CN2CCC1CC2)N1CCc2ccccc2[C@@H]1c1ccc2nccn2c1` [Compound 1079], 3.69 µM.

For the compound `O=C(N[C@@H]1CN2CCC1CC2)N1CCc2ccccc2[C@H]1c1ccc2nccn2c1` [Compound 1080], the EC50 under setting [3] was more than 10 µM.

For `O=C(N[C@@H]1CN2CCC1CC2)N1CCc2ccccc2[C@@H]1c1ccc(Cl)cc1` [Compound 1081], the concentration for a half-maximal effect (EC50) under setting [3] amounted to 0.25 µM.

Regarding `O=C(N[C@@H]1CN2CCC1CC2)N1CCc2ccccc2[C@H]1c1ccc(Cl)cc1` [Compound 1082], the EC50 under setting [3] was determined as 1.6 µM. Same read-out and setting: with `COc1ccc([C@H]2c3ccccc3CCN2C(=O)N[C@@H]2CN3CCC2CC3)cn1` [Compound 1083] the figure was 2.55 µM. Same read-out and setting: with `COc1ccc([C@@H]2c3ccccc3CCN2C(=O)N[C@@H]2CN3CCC2CC3)cn1` [Compound 1084] the figure was more than 3.16 µM.

Consider `O=C(N[C@@H]1CN2CCC1CC2)N1CCc2ccccc2[C@@H]1c1cccnc1` [Compound 1085], for which, under setting [3], the EC50 amounted to 1.78 µM.

On to `O=C(N[C@@H]1CN2CCC1CC2)N1CCc2ccccc2[C@H]1c1cccnc1` [Compound 1086], for which the EC50 under setting [3] was determined as 3.13 µM.

`CC(C)Oc1ccc([C@H]2c3ccccc3CCN2C(=O)N[C@@H]2CN3CCC2CC3)cc1` [Compound 1087]: under setting [3], the 50% effective concentration (EC50) is more than 10 µM. Still for that read-out and setting: with `CC(C)Oc1ccc([C@@H]2c3ccccc3CCN2C(=O)N[C@@H]2CN3CCC2CC3)cc1` [Compound 1088] the figure was more than 10 µM.

Values taken from patent US20210163471A1, “PROGRANULIN MODULATORS AND METHODS OF USING THE SAME” (ARKUDA THERAPEUTICS, priority 2017, published 2021).
